{"source": "paper PMC11596549", "about": "(Metabolites, 2024)", "key": {"[1]": {"conditions": "cited from earlier work; for effect on D-ARI concentration / higher mean dose-adjusted concentration of ARI / change of serum concentrations of ARI and AM versus control group: TDM database; for effect on D-ARI concentration / higher mean dose-adjusted concentration of ARI: ARI combined with the antidepressant"}, "[2]": {"conditions": "cited from earlier work"}, "[3]": {"experiment": "Pharmacokinetic drug interaction study: aripiprazole single dose alone or after 6-day bupropion pretreatment, LC-MS/MS quantification, non-compartmental analysis", "conditions": "for Vz_F / AUC(0-inf) / CL/F / Cmax / MRT / Tmax / k el: aripiprazole in rat plasma; for Vz_F / AUC(0-t) / AUC(0-inf) / CL/F / Cmax / MRT / Tmax / k el / half-life: mean ± S.D.; for AUC(0-t) / AUC(0-inf) / CL/F / Cmax / MRT / Tmax / k el / half-life: male, Wistar albino, rat, plasma, po, 8 mg/kg; for AUC(0-t): AUC0–30, aripiprazole in rat plasma; for AUC(0-inf): AUC0–∞; for CL/F: Cl_F; for k el: kel; for half-life: t1/2, aripiprazole in rat plasma", "description": "The suspension was vortex-mixed before each administration. We considered 15 mg ARI a usual therapeutic dose in humans. We multiplied by 10 the dose for rats/kg, but a higher dose of 8 mg/kg body weight (b.w.) was chosen to be suitable for detection in rat plasma, considering the analytical method sensitivity. […] We administered 43 mg/kg b.w. in rats, multiplying the target dose in humans of 300 mg/day by 10.\nTwenty-four Wistar albino male rats were divided into two groups.\nThe collection of blood samples was carried out using the BASi Culex ABC®-Automatic Blood Collector device (BASi, West Lafayette, IN, USA). This facilitated the collection of exact volumes per sample and at exact times post-administration. One day prior to blood sample collection, rats in both groups went through a surgical procedure consisting of a cannula insertion on the femoral vein under intramuscular anesthesia (0.1 mL/100 g b.w. of 1:1 ketamine and xylazine solution), which allowed the device to have access to the rats’ bloodstream. The excess blood drawn on the catheter was returned to the animal along with saline, replacing the volume of blood collected to avoid fluid depletion.\nBlood samples, 200 μL each, were automatically drawn in heparinized Eppendorf tubes at 10, 20, 30, 45 min, 1, 1.5, 2, 2.5, 3, 4, 6, 8, 10, 12, 16, 20, 24 and 30 h after ARI single-dose administration in the two experimental groups, and they were immediately placed at −20 °C until further analysis.\nSamples were precipitated using acetonitrile. For a 0.1 mL blood sample, 0.3 mL of acetonitrile were added. After the samples were vortex-mixed with IKA Vortex 2 (1000 rpm) for 10 s and centrifuged for 5 min at 10,000 rpm using a Sigma 3-30KS centrifuge (9168× g), the supernatant was injected into the HPLC system.\nFor concomitant quantification of ARI and D-ARI, a validated reverse-phase liquid chromatography coupled with tandem mass spectrometry (LC-MS/MS) method was developed. The HPLC system Agilent 1100 series with a binary pump, autosampler and thermostat (Agilent Technologies, Santa Clara, CA, USA) was used. The Bruker Ion Trap SL (Bruker Daltonics GmbH, Bremen, Germany) was used for detection. […] Haloperidol spiked into the thawed blood samples was used as an internal standard. The mobile phase consisted of water and 0.3% (m/v) formic acid as eluent A and acetonitrile as eluent B, eluted in a linear gradient (start with 20% acetonitrile, up to 2.5 min 38% acetonitrile, keep at 38% acetonitrile until 4.2 min, re-equilibrate with 20% acetonitrile for 2 min). The injection volume was 5 μL, the flow rate was 1 mL/min and the thermostat temperature was set at 40 °C. The MS detection was in multiple reaction monitoring mode (MRM), and the ESI-MS spectra were recorded in positive ion mode. The following mass transitions were used for analyte quantification: m/z 448 → m/z 285 for ARI, m/z 446 → m/z 285 for D-ARI and m/z 376 → m/z 165 for haloperidol. In these chromatographic conditions, the retention times were 2.80 min for haloperidol, 3.15 min for D-ARI and 3.55 min for ARI, respectively. The concentrations of the two analytes were determined by the instrument data system (QuantAnalysis software, Bruker Daltonics GmbH, Bremen, Germany) using peak area ratios versus concentration ratios of each analyte versus internal standard. The calibration curve model was determined for five calibration series by the linear least squares analysis, weighted (1/y2). […] The matrix effects were measured by comparing the response of the spiked plasma with the response of standards in solvent with the same concentration of ARI and D-ARI as in plasma, and for the measurement of the absolute recovery, a spike and a post-spiked sample were compared [31, 32]."}, "[4]": {"conditions": "co-medication, Japanese psychiatric patients"}, "[5]": {"conditions": "ARI 8 mg/kg single dose after 6-day BUP 43 mg/kg pretreatment (test, n = 12)"}, "[6]": {"conditions": "ARI 8 mg/kg single dose alone (reference, n = 12)"}, "[7]": {"conditions": "rats, after BUP repeated doses vs ARI alone"}}, "note": "Like-named read-outs stand apart in the source and are kept apart here.", "data": [{"smiles": "Fc1ccc([C@@H]2CCNC[C@H]2COc2ccc3c(c2)OCO3)cc1", "note": "[paroxetine]", "values": [{"measurement": "effect on D-ARI concentration", "setting": "[1]", "result": "no effect"}, {"measurement": "higher mean dose-adjusted concentration of ARI", "setting": "[1]", "result": 45, "unit": "%"}, {"measurement": "increase of the plasma concentrations of ARI", "setting": "[1]; [4]", "result": 1.7, "unit": "fold"}, {"measurement": "increase of the plasma concentrations of the active moiety (AM)", "setting": "[1]; [4]", "result": 1.5, "unit": "fold"}]}, {"smiles": "CN[C@H]1CC[C@@H](c2ccc(Cl)c(Cl)c2)c2ccccc21", "note": "[sertraline]", "values": [{"measurement": "change of serum concentrations of ARI and AM versus control group", "setting": "[1]; co-medication", "result": "no significant influence"}]}, {"smiles": "CN(C)CCC[C@@]1(c2ccc(F)cc2)OCc2cc(C#N)ccc21", "note": "[Escitalopram]", "values": [{"measurement": "change of serum concentrations of ARI and AM versus control group", "setting": "[1]; co-medication", "result": "slight but statistically significant"}, {"measurement": "change of the systemic exposure to the AM", "setting": "[1]; co-medication with ARI", "result": "did not significantly change"}]}, {"smiles": "O=C1CCc2ccc(OCCCCN3CCN(c4cccc(Cl)c4Cl)CC3)cc2N1", "note": "[Aripiprazole]", "values": [{"measurement": "absolute oral bioavailability (F)", "setting": "[2]", "result": 87, "unit": "%"}, {"measurement": "binding to plasma proteins", "setting": "[2]", "result": "> 99", "unit": "%"}, {"measurement": "time to reach maximum plasma concentration", "setting": "[2]", "result": "3 to 5", "unit": "h"}, {"measurement": "time to reach steady-state", "setting": "[2]", "result": 14, "unit": "days"}, {"measurement": "elimination t1/2", "setting": "[2]; poor metabolizers (PMs)", "result": 146, "unit": "h"}, {"measurement": "Vz_F", "setting": "[3]; [5]", "result": "20.67 ± 27.53", "unit": "L/kg"}, {"measurement": "Vz_F", "setting": "[3]; [6]", "result": "121.64 ± 143.94", "unit": "L/kg"}, {"measurement": "AUC(0-t)", "setting": "[3]; [5]", "result": "5390 ± 2980", "unit": "ng·h/mL"}, {"measurement": "AUC(0-t)", "setting": "[3]; [6]", "result": "1110 ± 931", "unit": "ng·h/mL"}, {"measurement": "AUC(0-inf)", "setting": "[3]; [5]", "result": "6310 ± 2980", "unit": "ng·h/mL"}, {"measurement": "AUC(0-inf)", "setting": "[3]; [6]", "result": "1120 ± 931", "unit": "ng·h/mL"}, {"measurement": "CL/F", "setting": "[3]; [5]", "result": 26.2, "unit": "mL/min/kg"}, {"measurement": "CL/F", "setting": "[3]; [6]", "result": 248, "unit": "mL/min/kg"}, {"measurement": "Cmax", "setting": "[3]; [5]", "result": "472 ± 217", "unit": "ng/mL"}, {"measurement": "Cmax", "setting": "[3]; [6]", "result": "240 ± 169", "unit": "ng/mL"}, {"measurement": "MRT", "setting": "[3]; [5]", "result": "19.2 ± 27.7", "unit": "h"}, {"measurement": "MRT", "setting": "[3]; [6]", "result": "4.63 ± 1.78", "unit": "h"}, {"measurement": "Tmax", "setting": "[3]; [5]", "result": "6.92 ± 2.47", "unit": "h"}, {"measurement": "Tmax", "setting": "[3]; [6]", "result": "1.65 ± 0.8", "unit": "h"}, {"measurement": "k el", "setting": "[3]; [5]", "result": "5e-05", "unit": "s⁻¹"}, {"measurement": "k el", "setting": "[3]; [6]", "result": "4.17e-05", "unit": "s⁻¹"}, {"measurement": "half-life", "setting": "[3]; [5]", "result": "11.5 ± 20.2", "unit": "h"}, {"measurement": "half-life", "setting": "[3]; [6]", "result": "5.56 ± 3.13", "unit": "h"}, {"measurement": "decrease of the apparent systemic clearance of ARI", "setting": "[3]; [7]", "result": "over 9 fold"}, {"measurement": "increase of the mean AUC0–30 of ARI", "setting": "[3]; [7]", "result": 4.85, "unit": "fold"}, {"measurement": "increase of the mean AUC0–∞ of ARI", "setting": "[3]; [7]", "result": 5.65, "unit": "fold"}, {"measurement": "increase of the mean Cmax of ARI", "setting": "[3]; [7]", "result": 96.76, "unit": "%"}, {"measurement": "increase of the mean Cmax of ARI", "setting": "[3]; rats, after BUP repeated doses vs ARI alone, listed as ARI", "result": 2, "unit": "fold"}]}, {"smiles": "COc1ccc(C(CN(C)C)C2(O)CCCCC2)cc1", "note": "(centres unmarked) [venlafaxine]", "values": [{"measurement": "change of serum concentrations of ARI and AM versus control group", "setting": "[1]; co-medication", "result": "no significant influence"}]}, {"smiles": "CNCC[C@H](Oc1cccc2ccccc12)c1cccs1", "note": "[duloxetine]", "values": [{"measurement": "increase of the plasma concentrations of ARI", "setting": "[1]; large TDM database, co-medication", "result": 54.2, "unit": "%"}]}, {"smiles": "CNCCC(Oc1ccc(C(F)(F)F)cc1)c1ccccc1", "note": "(centres unmarked) [fluoxetine]", "values": [{"measurement": "effect on D-ARI concentration", "setting": "[1]", "result": "no effect"}, {"measurement": "higher mean dose-adjusted concentration of ARI", "setting": "[1]", "result": 45, "unit": "%"}, {"measurement": "increase of the C/D ratio of ARI compared to ARI monotherapy", "setting": "[1]; routine TDM service, concomitant use", "result": 44, "unit": "%"}]}, {"smiles": "CC(NC(C)(C)C)C(=O)c1cccc(Cl)c1", "note": "(centres unmarked) [BUP, Bupropion]", "values": [{"measurement": "oral bioavailability", "setting": "[2]", "result": 90, "unit": "%"}]}]}
